Source: patent US7947673B2, “Method of scintigraphy” (Novartis AG, priority 2005, dated 2011)

Legend:
[1] = Determination of the affinity constant for gallium by potentiometric measurements; assay type: physicochemical; settings: ionic strength 0.1 M KCl, temperature 25° C., in water
Description: Determination of the affinity constant of 4-[3,5-bis(2-hydroxyphenyl)-[1,2,4]triazol-1-yl]benzoic acid for gallium
(§1) Chem. 2004, pp 4177-4192. Considering the affinity constants of 4-[3,5-bis(2-hydroxyphenyl)-[1,2,4]triazol-1-yl]benzoic acid for other metal ions according to Steinhauser et al., Eur. J. Inorg.

[2] = Ranking of affinity constants for metal ions; assay type: physicochemical; settings: other metal ion constants according to Steinhauser et al., Eur. J. Inorg. Chem. 2004
Description: as §1

affinity constant for Gallium, log β120 [1]: 33.8(1)
SMILES: O=C(O)c1ccc(-n2nc(-c3ccccc3O)nc2-c2ccccc2O)cc1 [4-[3,5-bis(2-hydroxyphenyl)-[1,2,4]triazol-1-yl]benzoic acid]
ranking according to affinity constants for metal ions [2]: Fe(III) (highest affinity)>Ga(III)>Al(III)>>Cu(II)>>Zn(II)>>Mg(II)>Ca(II)
